# Results taken from patent US10435697B2, “Recombinant expression system that senses pathogenic microorganisms” (priority 2014, dated 2019).
# Ends that are not written are not given here.
# How the values were obtained:
# [1] = system: V. cholerae (A1522 Rugose-GFP); format: cell-based, Vibrio cholerae; settings: LB broth, 18-20 h at 37° C., absorbance and GFP fluorescence monitored, DMSO control
# Experimental: […]. The target cells were effectively killed at an MIC of 50 μM. As a control only DMSO was used. As the target cells express GFP embedded into its chromosome, the GFP fluorescence (B) along with the absorbance (growth) (A) was monitored in this experiment.
# (§1) Moreover, a minimum inhibitory concentration (MIC) assay was conducted using CM11 (P3). The medium used for the broth microdilution test was LB Broth and the cells were V. cholera A1522-Rugose-GFP and E. coli Nissile strains. Overnight cultures were transferred into 5 ml of LB and were grown at 37° C. for 2-3 h. To approximate the density of 0.5 McFarland standard, this suspension with the inoculum concentration of 108 colony forming units (CFU/ml) was then diluted to 106 CFU/ml with the LB broth. Peptide P3 stock solution of 1000 μg/ml was prepared using DMSO. Serial two-fold dilutions of the peptide (P3) with the following concentration (2-100 μg/ml) were prepared with LB broth and placed in 96-well microtiter plates and the lowest concentration inhibiting visible growth after 18-20 h at 37° C. was recorded as MIC (see FIGS. 16 and 17).
# [2] = system: E. coli Top10; assay: Growth curves (OD600) of E. coli Top10 after induced expression of the peptide from a plasmid; format: cell-based, Escherichia coli
# Description: To evaluate the activity of Microcin S (mcsS) and Microcin immunity protein (mcsI) in E. coli Top10 cells five different plasmids were constructed (FIG. 10).
# Moreover, also the effect of Microcin immunity protein (mcsI) in the presence of Microcin S was studied. For this, the mcsI gene was introduced into the pBbE8K+McsS-YebF-I and pBbE8K+McsS-I plasmids resulting in pBbE8K+McsI+McsS-YebF-II and pBbE8K+McsI+McsS-II, respectively. In these constructs, mcsS expression is controlled by an araC pBAD activator-promoter (SEQ ID NO), rendering Microcin S expression inducible by L-arabinose. In contrast, mcsI expression is constitutively ON when using the rrnB promoter (SEQ ID NO 28).
# Furthermore, also the effect of Microcin whole cascade in E. coli Top10 growing in liquid culture with 0.125% arabinose and without arabinose after being transformed with construct 5 of FIG. 12 was studied.
# For example, in the case of CM11 (P3) the P3 gene was cloned under the arabinose promoter (pBAD) in the pBbE8K vector resulting in the pBbE8K+P3 plasmid. In other words, P3 expression in this construct is controlled by an araC PBAD activator-promoter, rendering P3 expression inducible by L-arabinose.
# In addition, in order to characterize the lysis activity in E. coli, the lysis E7 gene was cloned under the tetracycline promoter (pTet) in the pBbA2C vector resulting in the pBbA2C+E7 plasmid.
# [3] = system: V. cholerae; settings: previously shown (Da Silva 2008; Moghaddam 2012; Yaraksa 2014); cited from earlier work
# [4] = system: E. coli Nissile; format: cell-based, Escherichia coli; settings: LB broth, 18-20 h at 37° C., DMSO control
# Experimental: FIG. 17 MIC of the synthetic peptide CM11 (P3) against E. coli Nissile. […] As a control only DMSO was used.
# as §1
# [5] = system: pathogenic E. coli; settings: Yaraksa et al. 2014; cited from earlier work
# [6] = system: CqsS/CAI-1 quorum-sensing phosphorelay system of V. cholerae; assay: CAI-1 sensing by two-plasmid system (CqsS, LuxU, LuxO; GFP under pQrr4); format: cell-based, Vibrio cholerae; settings: LuxO induced by arabinose
# Description: In the test construct the pBAD promoter drives LuxO. […] This is due to the downregulation of pQrr4 promoter by the CqsS cascade originating form V. cholera. In contrast, no alteration of GFP expression was observed when arabinose was present, but CAI-1 was absent. […] The system is inducible by arabinose in order to add an additional level of control.
# In the next step, a double plasmid system, with the CqsS (SEQ ID NO 6), LuxU (SEQ ID NO 7) and LuxO (SEQ ID NO 8) genes expressed on one plasmid and GFP (SEQ ID NO) under pQrr4 promoter (SEQ ID NO 19) on another was generated. Thus, this system comprises the CAI-1 sensor module, in which phosphorylated LuxO activates the Qrr4 promoter. In the test construct the pBAD promoter drives LuxO, which is inducible by arabinose.
# In other words, the system changes its fluorescence with different concentrations of CAI-1.
# [7] = system: V. cholerae; assay: Microbroth dilution assay of purified Microcin S on V. cholerae; format: cell-based, Vibrio cholerae
# Experimental: (§2) In addition, the Microcin S peptide was purified to test its efficacy on V. cholerae and E. coli. […] Subsequently, the cells were pelleted by centrifugation at 4000 g for 20 min and lysed using a sonicator. Purification of Microcin S was carried out using Qiagen Ni-NTA fast start kit. The eluate was dialysed using Slide-A-Lyzer dialysis cassette and a 2 KDa cutoff (Life Technologies) for 4 hrs in 1×PBS. The dialysed samples were concentrated by ultra filtration using a molecular mass cutoff membrane (Amicon Ultra-15 Centrifugal Filter Unit, Millipore). As the estimated size of the protein is approximately 12 kDa, the first concentration was done using a 30 kDa cutoff membrane where the flow-through was collected and subsequently passed through a 3 kDa cutoff membrane. The resulting retentate was collected and the concentration was quantified using Quant-IT protein assay kit (Life Technologies).
# (§3) The induced sample expressed has Microcin S (FIG. 13B) and the fluorescence reading from the Quant-it assay was 1135, which was close to a concentration of 200 ng/μl, calculated from the standard curve (FIG. 13A). […] After the presence of Microcin S was confirmed from the purified sample, a microbroth dilution assay was carried out to measure the minimum inhibitory concentration of purified Microcin S on V. cholerae and E. coli. […]
# [8] = system: E. coli wt; assay: Microbroth dilution assay of purified Microcin S on E. coli; format: cell-based, Escherichia coli
# Experimental: as §2, §3
# [9] = expression induced with 0.125% L-arabinose (pBAD), vs un-induced
molecule,measurement,setting,value
WKLFKKILKVL-NH2 [CM11],MIC,[1],50 µM
same,growth (OD600) of host cell after induction,"[2]; pBbE8K+P3, induced with 0.2% L-arabinose, vs un-induced, listed as CM11 (P3)",reduces the growth of E. coli
same,growth (OD600) of host cell after induction,"[2]; pBbE8K+P3, induced with 0.2% L-arabinose, vs un-induced, listed as P3",reduced significantly
same,activity against V. cholerae,[3],show inhibitory activity
same,MIC,[4],25 µM
G12.21 (RRVSRRPMRRYRSRRPRRLV),activity against V. cholerae,[3],effectively control the growth of V. cholerae both in vitro and in vivo
Lysis E7 (MKKITGIILLLLAAIILAACQANYIRDVQGGTVSPSSTAELTGVETQ; Secretory peptide),time to lyse E. coli,[2]; 200 nM atc,≤ 4 h
same,OD600 of host cell after induction (lysis),"[2]; pBbA2C+E7, 200 nM anhydrotetracycline, vs un-induced",reduced significantly due to the lysis
Magainin 2 (GIGKFLHSAKKFGKAFVGEIMNS; listed as Xenopus laevis),activity against V. cholerae,[3],good killing efficiency
same,activity against pathogenic E. coli,[5],good killing efficiency
G14.15 (GRSRWRRVSRRFMRR),activity against V. cholerae,[3],effectively control the growth of V. cholerae both in vitro and in vivo
McsS-YebF,growth (OD600) of host cell after induction,[2]; [9],complete growth inhibition
"CCCCCCCCCC(=O)[C@@H](O)CC [CAI-1, (S)-3-hydroxytridecan-4-one]",GFP expression on addition of CAI-1,[6],a drop in the GFP expression was observed
CM15 (KWKLFKKIGAVLKVL-NH2),activity against V. cholerae,[3],show inhibitory activity
"Microcin S (protein, listed as Escherichia coli) MSNIRELSFDEIALVSGGNANSNYEGGGSRSRNTGARNSLGRNAPTHIYSDPSTVKCANAVFSGMVGGAIKGGPVGMTRGTIGGAVIGQCLSGGGNGNGGGNRAGSSNCSGSNVGGTCSR",inhibitory activity,[7],has inhibitory activity
same,Minimal inhibition concentration,"[7]; LB broth, 4 hrs, OD",100 ng/µL
same,growth (OD600) of host cell after induction,[2]; [9],reduced OD600 readings
same,growth (OD600) of host cell after induction,"[2]; expression induced with 0.125% L-arabinose (pBAD), vs un-induced, listed as McsS",complete growth inhibition
same,inhibitory activity,[8],has inhibitory activity
same,Minimal inhibition concentration,"[8]; LB broth, 4 hrs, OD",100 ng/µL
